Experimental data as given in US20100210652A1, “Method For Controlling Fungal Pests” (priority 2006, published 2010).

Columns and labels:
[1] = system: resistant Plasmopara viticola strains; assay: Activity against resistant Plasmopara viticola strains on grapevine plants (Riesling); type: in vivo; conditions: for diseased leaf area: resistant fungi, grapevine (Riesling), final evaluation on day 6; for assessment in words of the treatment of resistant fungal strains: preventative treatment
Method: (§1) Study on the activity of the four carboxamide fungicides against sensitive and resistant Plasmopara viticola strains.
(§2) Four-week old grapevine plants (Riesling) with 6-8 leaves are treated with 50 ml of a solution which contains the harmful fungi (200 000 spores of the fungus Plasmopara viticola per milliliter). Tests are carried out both with sensitive and with resistant strains.
(§3) The fungicidal active substances described in Example 1 are applied both one day before the treatment with the harmful fungi (preventative treatment) and in each case one day after the treatment with the harmful fungi (curative treatment). After the treatment with the harmful fungi, the plants are left to stand overnight at 95% atmospheric humidity and a temperature of 18° C. This is followed by a 6-day observation phase and a final evaluation on day 6, the test plants being exposed to daylight for 12 hours and left to stand in the dark for 12 hours.
(§4) To promote spore development, the undersides of the grapevine leaves are sprayed with water 24 hours before carrying out the final evaluation and left to stand.
(§5) The experiments are evaluated by determining the percentage of diseased leaf area of each plant. A high percentage means a high disease level caused by the harmful fungus, while a low percentage means a low disease level caused by the harmful fungus.

[2] = system: sensitive Plasmopara viticola strains; assay: Activity against sensitive Plasmopara viticola strains on grapevine plants (Riesling); type: in vivo; conditions: final evaluation on day 6
Method: as §1, §2, §3, §4, §5

[3] = curative treatment (one day after treatment with the harmful fungi)
[4] = preventative treatment (one day before treatment with the harmful fungi)

Structure (SMILES) | diseased leaf area [1, 3] | diseased leaf area [1, 4] | assessment in words of the treatment of resistant fungal strains [1] | diseased leaf area [2, 3] | diseased leaf area [2, 4]
C#CCOc1ccc(CCNC(=O)C(OCC#C)c2ccc(Cl)cc2)cc1OC (racemic) [stock solution B, (RS)-2-(4-chlorophenyl)-N-[3-methoxy-4-(prop-2-ynyloxy)phenethyl]-2-(prop-2-ynyloxy)acetamide] | 65% | 8% | effective | 0% | 0%
COc1ccc(C(=CC(=O)N2CCOCC2)c2ccc(Cl)cc2)cc1OC [stock solution A, (E,Z)-4-[3-(4-chlorophenyl)-3-(3,4-dimethoxyphenyl)acryloyl]morpholine] | 70% | 0.5% | effective | 0% | 0%
Cc1ccc(C(C)NC(=O)[C@@H](NC(=O)OC(C)C)C(C)C)cc1 (stereo partly drawn) [stock solution C, isopropyl 2-methyl-1-[(1-p-tolylethyl)carbamoyl]-(S)-propylcarbamate] | 75% | 70% | no satisfactory results | 0% | 0%
CC(C)OC(=O)N[C@H](C(=O)N[C@H](C)c1nc2ccc(F)cc2s1)C(C)C [stock solution D, isopropyl[(S)-1-{[(R)-1-(6-fluoro-1,3-benzothiazol-2-yl)ethyl]carbamoyl}-2-methylpropyl]carbamate] | 70% | 55% | no satisfactory results | 0% | 0%
